Assay results reported in ChEMBL document CHEMBL4420073, “Small molecule inhibitors of MUC1 and methods of identifying the same” (2015).
Each block holds one compound with its values, some of them ahead of it. Active and inactive are the calls of the source. The calls are words filed in the database; no cut-off is given here.

What was measured:
Mucin-1 (Homo sapiens) [1] = biological target: Mucin-1 (Homo sapiens) (UniProt P15941); assay: Inhibition of biotinylated MUC1-CD dimerization (unknown origin) assessed as decrease in oligomer formation at 100 uM by streptavidin-HRP based assay relative to control
Chain of Mucin-1 (Homo sapiens) (P15941 24-1097 limits assumed): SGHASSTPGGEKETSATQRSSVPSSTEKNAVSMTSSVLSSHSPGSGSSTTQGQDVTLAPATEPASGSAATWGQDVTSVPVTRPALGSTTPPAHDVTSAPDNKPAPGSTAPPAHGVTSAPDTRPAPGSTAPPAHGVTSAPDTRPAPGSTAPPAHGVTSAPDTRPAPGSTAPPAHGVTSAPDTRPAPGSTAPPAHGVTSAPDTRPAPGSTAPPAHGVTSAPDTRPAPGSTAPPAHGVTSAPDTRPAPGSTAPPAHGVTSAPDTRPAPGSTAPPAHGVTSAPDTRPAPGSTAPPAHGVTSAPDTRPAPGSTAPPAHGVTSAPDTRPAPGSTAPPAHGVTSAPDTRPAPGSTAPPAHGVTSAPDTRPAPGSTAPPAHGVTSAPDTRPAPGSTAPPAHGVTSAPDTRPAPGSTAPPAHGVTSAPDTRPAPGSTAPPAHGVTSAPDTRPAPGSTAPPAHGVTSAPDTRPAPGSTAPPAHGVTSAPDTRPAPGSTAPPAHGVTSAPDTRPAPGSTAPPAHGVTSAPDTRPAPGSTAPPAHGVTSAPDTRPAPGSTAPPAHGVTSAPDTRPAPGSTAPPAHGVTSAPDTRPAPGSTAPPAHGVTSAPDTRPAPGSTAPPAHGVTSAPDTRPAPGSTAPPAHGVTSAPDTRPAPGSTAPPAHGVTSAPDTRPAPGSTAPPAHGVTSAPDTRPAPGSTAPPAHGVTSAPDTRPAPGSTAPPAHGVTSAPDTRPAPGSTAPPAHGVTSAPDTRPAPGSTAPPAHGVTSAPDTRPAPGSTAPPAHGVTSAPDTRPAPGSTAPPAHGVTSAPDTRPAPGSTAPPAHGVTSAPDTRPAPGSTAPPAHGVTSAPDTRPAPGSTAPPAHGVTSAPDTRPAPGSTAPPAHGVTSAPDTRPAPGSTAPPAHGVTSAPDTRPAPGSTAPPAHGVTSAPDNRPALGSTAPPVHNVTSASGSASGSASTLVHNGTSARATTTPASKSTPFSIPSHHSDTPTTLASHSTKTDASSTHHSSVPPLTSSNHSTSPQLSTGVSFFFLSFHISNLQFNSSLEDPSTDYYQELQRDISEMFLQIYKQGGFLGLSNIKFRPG
Chain of Mucin-1 (Homo sapiens) (P15941 1098-1255 limits assumed): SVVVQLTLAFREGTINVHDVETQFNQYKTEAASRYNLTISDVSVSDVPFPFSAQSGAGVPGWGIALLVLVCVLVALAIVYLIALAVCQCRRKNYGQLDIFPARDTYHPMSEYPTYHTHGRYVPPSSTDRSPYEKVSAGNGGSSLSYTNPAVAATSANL

Mucin-1 (Homo sapiens) [2] = biological target: Mucin-1 (Homo sapiens) (UniProt P15941); assay: Inhibition of MUC1 in human MCF7 cells assessed as decrease in MUC1 protein level in whole cell lysates at 75 uM incubated for 3 days by immunoblot analysis; assay type: subcellular; details: Lysate
Mucin-1 (Homo sapiens) [3] = biological target: Mucin-1 (Homo sapiens) (UniProt P15941); assay: Inhibition of soluble unbound MUC1-CD dimerization (unknown origin) by immunoblot analysis
MCF-10A [4] = assay: Induction of apoptosis in immortalized human MCF10A cells assessed as caspase-9 cleavage at 75 uM incubated for 3 days by immunoblot analysis; assay type: functional, cell-based
Mucin-1 (Homo sapiens) [5] = biological target: Mucin-1 (Homo sapiens) (UniProt P15941); assay: Inhibition of MUC1-CD dimerization (unknown origin) expressed in HEK293 cells assessed as disruption of interaction between Flag-MUC1-CD and GFP-MUC1-CD by coimmunoprecipitation assay; assay type: cell-based
Mucin-1 (Homo sapiens) [6] = biological target: Mucin-1 (Homo sapiens) (UniProt P15941); assay: Inhibition of MUC1 nuclear import in human MCF7 cells assessed as decrease in nuclear MUC1-C levels at 75 uM incubated for 3 days by immunoblot analysis; assay type: cell-based
MCF7 [7] = assay: Reduction of MUC1 mRNA levels in human MCF7 cells at 75 uM incubated for 3 days by qRT-PCR analysis; assay type: functional, cell-based
MCF-10A [8] = assay: Induction of cell membrane integrity loss in immortalized human MCF10A cells at 75 uM incubated for 3 days by propidium iodide staining based flow cytometry; assay type: functional
Mucin-1 (Homo sapiens) [9] = biological target: Mucin-1 (Homo sapiens) (UniProt P15941); assay: Inhibition of MUC1-CD dimerization in human MCF10A cells assessed as reduction in MUC1-C levels at 50 to 100 uM incubated for 3 days by immunoblot analysis; assay type: cell-based
MCF-10A [10] = assay: Induction of cell membrane integrity loss in immortalized human MCF10A cells assessed as PI uptake level at 50 uM incubated for 3 days by propidium iodide staining based flow cytometry (reference value: 23%); assay type: functional
MCF-10A [11] = assay: Induction of cell membrane integrity loss in immortalized human MCF10A cells assessed as PI uptake level at 75 uM incubated for 3 days by propidium iodide staining based flow cytometry (reference value: 23%); assay type: functional
MCF-10A [12] = assay: Growth inhibition of immortalized human MCF10A cells assessed as reduction in cell number up to 100 uM incubated for 3 days by MTS assay; assay type: functional, cell-based
MCF7 [13] = assay: Induction of cell membrane integrity loss in human MCF7 cells assessed as PI uptake level at 75 uM incubated for 3 days by propidium iodide staining based flow cytometry (reference value: 22%); assay type: functional

Structure (SMILES): CCOC(=O)c1oc2cc(OCc3ccc(C(=O)OC)o3)ccc2c(=O)c1-c1ccc(C(=O)OC)o1
inhibition (Mucin-1 (Homo sapiens) [1]): > 50%

Structure (SMILES): O=c1cc(-c2ccccc2)oc2cc(O)c(O)c(O)c12 [BAICALEIN]
inhibition (Mucin-1 (Homo sapiens) [2]): inactive
inhibition (Mucin-1 (Homo sapiens) [3]): inactive
Activity (MCF-10A [4]): inactive
inhibition (Mucin-1 (Homo sapiens) [5]): inactive
inhibition (Mucin-1 (Homo sapiens) [6]): inactive
Activity (MCF7 [7]): inactive
Activity (MCF-10A [8]): inactive
inhibition (Mucin-1 (Homo sapiens) [1]): inactive
inhibition (Mucin-1 (Homo sapiens) [9]): inactive
Activity (MCF-10A [10]): 27%
Activity (MCF-10A [11]): 28%
growth inhibition (GI) (MCF-10A [12]): inactive
Activity (MCF7 [13]): 19%

Structure (SMILES): CCCc1c(C)c2ccc(OC(=O)C(C)NC(=O)OCc3ccccc3)cc2oc1=O (stereo not drawn)
inhibition (Mucin-1 (Homo sapiens) [1]): > 50%

Structure (SMILES): CCCCc1cc2c(=O)c(-c3cc[nH]n3)c(C)oc2cc1O
inhibition (Mucin-1 (Homo sapiens) [1]): > 50%

Results, then the compound that gave them:

inhibition (Mucin-1 (Homo sapiens) [1]): > 50%
Structure (SMILES): O=c1cc(C(F)(F)F)c2ccc(OCc3ccccc3)cc2o1

inhibition (Mucin-1 (Homo sapiens) [1]): > 50%
Structure (SMILES): CC(=O)C(C)Oc1ccc2c(-c3ccccc3)cc(=O)oc2c1 (stereo not drawn)
